Experimental data from patent US7935815B2, “Imidazoyl pyridine compounds and salts thereof” (Eisai R&D Management Co., Ltd., priority 2007, dated 2011).

test system: Aβ42 production; assay: Quantification of Aβ peptide in culture of neurons from rat fetus brain (Aβ ELISA); type: cell-based; settings: Rattus norvegicus, Neuron, 72 h, rat primary neuronal culture (embryonic day 18 Wistar rat cerebral cortex); cultured three days after addition of compound; Aβx-42 ELISA of the medium; read-out: Aβ42 production reducing effect IC50
Method: Quantification of Aβ Peptide in Culture of Neurons from Rat Fetus Brain
(1) Rat Primary Neuronal Culture
Primary neuronal cultures were prepared from the cerebral cortex of embryonic day 18 Wistar rats (Charles River Japan, Yokohama, Japan). Specifically, the embryos were aseptically removed from pregnant rats under ether anesthesia. The brain was isolated from the embryo and immersed in an ice-cold L-15 medium (Invitrogen Corp. Cat #11415-064, Carlsbad, Calif., USA, or SIGMA L1518, for example). The cerebral cortex was collected from the isolated brain under a stereoscopic microscope. The cerebral cortex fragments collected were enzymatically treated in an enzyme solution containing 0.25% trypsin (Invitrogen Corp. Cat #15050-065, Carlsbad, Calif., USA) and 0.01% DNase (Sigma D5025, St. Louis, Mo., USA) at 37° C. for 30 minutes to disperse the cells. Here, the enzymatic reaction was stopped by adding inactivated horse serum to the solution. The enzymatically treated solution was centrifuged at 1,500 rpm for five minutes to remove the supernatant. 5 to 10 ml of a medium was added to the resulting cell mass. Neurobasal medium (Invitrogen Corp. Cat #21103-049, Carlsbad, Calif., USA) supplemented with 2% B27 supplement (Invitrogen Corp. Cat #17504-044, Carlsbad, Calif., USA), 25 μM 2-mercaptoethanol (2-ME, WAKO Cat #139-06861, Osaka, Japan), 0.5 mM L-glutamine (Invitrogen Corp. Cat #25030-081, Carlsbad, Calif., USA), and Antibiotics-Antimycotics (Invitrogen Corp. Cat #15240-062, Carlsbad, Calif., USA) was used as the medium (Neurobasal/B27/2-ME). However, the above Neurobasal medium not supplemented with 2-ME (Neurobasal/B27) was used for the assay. The cells were redispersed by mild pipetting of the cell mass to which the medium was added. The cell dispersion was filtered through a 40-μm nylon mesh (Cell Strainer, Cat #35-2340, Becton Dickinson Labware, Franklin Lakes, N.J., USA) to remove the remaining cell mass, and thus a neuronal cell suspension was obtained. The neuronal cell suspension was diluted with the medium and then plated in a volume of 100 μl/well at an initial cell density of 5×10^5 cells/cm^2 in a 96-well polystyrene culture plate pre-coated with poly-L or D-lysine (Falcon Cat #35-3075, Becton Dickinson Labware, Franklin Lakes, N.J., USA coated with poly-L-lysine using the method shown below, or BIOCOAT™ cell environments Poly-D-lysine cell ware 96-well plate, Cat #35-6461, Becton Dickinson Labware, Franklin Lakes, N.J., USA). Poly-L-lysine coating was carried out as follows. 100 μg/ml of a poly-L-lysine (SIGMA P2636, St. Louis, Mo., USA) solution was aseptically prepared with a 0.15 M borate buffer (pH 8.5). 100 μl/well of the solution was added to the 96-well polystyrene culture plate and incubated at room temperature for one or more hours or at 4° C. overnight or longer. The coated 96-well polystyrene culture plate was washed with sterile water four or more times, and then dried or rinsed with, for example, sterile PBS or medium, and used for cell plating. The plated cells were cultured in the culture plate at 37° C. in 5% CO2-95% air for one day. Then, the total amount of the medium was replaced with a fresh Neurobasal™/B27/2-ME medium, and then the cells were cultured for further three days.
The drug was added to the culture plate on Day 4 of culture as follows. The total amount of the medium was removed from the wells, and 180 μl/well of Neurobasal medium not containing 2-ME and containing 2% B-27 (Neurobasal/B27) was added thereto. A solution of the test compound in dimethyl sulfoxide (hereinafter abbreviated as DMSO) was diluted with Neurobasal/B27 at 10-fold of the final concentration. 20 μl/well of the dilution was added to and sufficiently mixed with the medium. The final DMSO concentration was 1% or less. Only DMSO was added to the control group.
The cells were cultured for three days after addition of the compound, and the total amount of the medium was collected. […]

SMILES | IC50
COc1nc(/C=C/c2nc3n(n2)CCC[C@@H]3c2cccc(F)c2)ccc1-n1cnc(C)c1 (single isomer, unassigned) [Example 189, (−)-8-(3-fluorophenyl)-2-{(E)-2-[6-methoxy-5-(4-methyl-1H-imidazol-1-yl)pyridin-2-yl]vinyl}-5,6,7,8-tetrahydro[1,2,4]triazolo[1,5-a]pyridine] | 0.043 µM
COc1nc(/C=C/c2nc3n(n2)CCC[C@H]3c2ccccc2Cl)ccc1-n1cnc(C)c1 (single isomer, unassigned) [Example 193, (−)-8-(2-chlorophenyl)-2-{(E)-2-[6-methoxy-5-(4-methyl-1H-imidazol-1-yl)pyridin-2-yl]vinyl}-5,6,7,8-tetrahydro-[1,2,4]triazolo[1,5-a]pyridine] | 0.08 µM
COc1nc(/C=C/c2nc3n(n2)CCC[C@H]3c2ccccc2C(F)(F)F)ccc1-n1cnc(C)c1 (single isomer, unassigned) [Example 195] | 0.017 µM
COc1nc(/C=C/c2nc3n(n2)CCC[C@H]3c2cccc3ccccc23)ccc1-n1cnc(C)c1 (single isomer, unassigned) [Example 199, (+)-2-{(E)-2-[6-methoxy-5-(4-methyl-1H-imidazol-1-yl)pyridin-2-yl]vinyl}-8-(naphthalen-1-yl)-5,6,7,8-tetrahydro-[1,2,4]triazolo[1,5-a]pyridine] | 0.023 µM
COc1nc(/C=C/c2nc3n(n2)CCC[C@H]3c2ccccc2)ccc1-n1cnc(C)c1 (single isomer, unassigned) [Example 207, (−)-2-{(E)-2-[6-methoxy-5-(4-methyl-1H-imidazol-1-yl)pyridin-2-yl]vinyl}-8-phenyl-5,6,7,8-tetrahydro-[1,2,4]triazolo[1,5-a]pyridine] | 0.028 µM
COc1cc(/C=C/c2nc3n(n2)CCCC3c2ccc(F)cc2)cnc1-n1cnc(C)c1 (single isomer, unassigned) [Example 212, (−)-8-(4-fluorophenyl)-2-{(E)-2-[5-methoxy-6-(4-methyl-1H-imidazol-1-yl)pyridin-3-yl]vinyl}-5,6,7,8-tetrahydro-[1,2,4]triazolo[1,5-a]pyridine] | 0.1 µM
COc1cc(/C=C/c2nc3n(n2)CCCC3c2ccc(F)c(F)c2)cnc1-n1cnc(C)c1 (single isomer, unassigned) [Example 218, (−)-8-(3,4-difluorophenyl)-2-{(E)-2-[5-methoxy-6-(4-methyl-1H-imidazol-1-yl)pyridin-3-yl]vinyl}-5,6,7,8-tetrahydro-[1,2,4]triazolo[1,5-a]pyridine] | 0.069 µM
COc1cc(/C=C/c2nc3n(n2)CCC[C@@]3(C#N)c2cc(F)c(F)c(F)c2)cnc1-n1cnc(C)c1 (single isomer, unassigned) [Example 229, (−)-2-{(E)-2-[5-methoxy-6-(4-methyl-1H-imidazol-1-yl)pyridin-3-yl]vinyl}-8-(3,4,5-trifluorophenyl)-5,6,7,8-tetrahydro-[1,2,4]triazolo[1,5-a]pyridine-8-carbonitrile] | 0.169 µM
COc1nc(/C=C/c2nc3n(n2)CC[C@@H]3c2cc(F)c(F)c(F)c2)ccc1-n1cnc(C)c1 (single isomer, unassigned) [Example 254, (−)-2-{(E)-2-[6-methoxy-5-(4-methyl-1H-imidazol-1-yl)pyridin-2-yl]vinyl}-7-(3,4,5-trifluorophenyl)-6,7-dihydro-5H-pyrrolo[1,2-b][1,2,4]triazole] | 0.05 µM
COc1nc(/C=C/c2nc3n(n2)CCOC3c2ccc(Cl)cc2)ccc1-n1cnc(C)c1 (single isomer, unassigned) [Example 262, (−)-8-(4-chlorophenyl)-2-{(E)-2-[6-methoxy-5-(4-methyl-1H-imidazol-1-yl)pyridin-2-yl]vinyl}-5,6-dihydro-8H-[1,2,4]triazolo[5,1-c][1,4]oxazine] | 0.074 µM
COc1nc(/C=C/c2nc3n(n2)CCC[C@H]3c2cccc(F)c2F)ccc1-n1cnc(C)c1 (single isomer, unassigned) [Example 280, (−)-8-(2,3-difluorophenyl)-2-{(E)-2-[6-methoxy-5-(4-methyl-1H-imidazol-1-yl)pyridin-2-yl]vinyl}-5,6,7,8-tetrahydro-[1,2,4]triazolo[1,5-a]pyridine] | 0.018 µM
COc1nc(/C=C/c2nc3n(n2)CCC[C@H]3c2cccc(C)c2F)ccc1-n1cnc(C)c1 (single isomer, unassigned) [Example 282, (−)-8-(2-fluoro-3-methylphenyl)-2-{(E)-2-[6-methoxy-5-(4-methyl-1H-imidazol-1-yl)pyridin-2-yl]vinyl}-5,6,7,8-tetrahydro-[1,2,4]triazolo[1,5-a]pyridine] | 0.029 µM
COc1cc(/C=C/c2nc3n(n2)CCCC3(O)c2cc(F)cc(F)c2)ccc1-n1cnc(C)c1 (single isomer, unassigned; (+)) [Example 80, (+)-8-(3,5-difluorophenyl)-2-{(E)-2-[3-methoxy-4-(4-methyl-1H-imidazol-1-yl)phenyl]vinyl}-5,6,7,8-tetrahydro[1,2,4]triazolo[1,5-a]pyridin-8-ol] | 0.029 µM
COc1cc(/C=C/c2nc3n(n2)CCCC3c2cccc(F)c2)ccc1-n1cnc(C)c1 (single isomer, unassigned; (-)) [Example 2, (−)-8-(3-fluorophenyl)-2-{(E)-2-[3-methoxy-4-(4-methyl-1H-imidazol-1-yl)phenyl]vinyl}-5,6,7,8-tetrahydro[1,2,4]triazolo[1,5-a]pyridine] | 0.028 µM
CCCCC(=O)c1ccc(C2CCCn3nc(/C=C/c4ccc(-n5cnc(C)c5)c(OC)c4)nc32)cc1 (single isomer, unassigned; (-)) [Example 3, (−)-1-{4-{2-{(E)-2-[3-methoxy-4-(4-methyl-1H-imidazol-1-yl)phenyl]vinyl}-5,6,7,8-tetrahydro[1,2,4]triazolo[1,5-a]pyridin-8-yl}phenyl}pentan-1-one] | 0.048 µM
COc1cc(/C=C/c2nc3n(n2)CCCC3c2ccc(C(C)C)cc2)ccc1-n1cnc(C)c1 (single isomer, unassigned; (-)) [Example 5, (−)-8-(4-isopropylphenyl)-2-{(E)-2-[3-methoxy-4-(4-methyl-1H-imidazol-1-yl)phenyl]vinyl}-5,6,7,8-tetrahydro[1,2,4]triazolo[1,5-a]pyridine] | 0.021 µM
COc1cc(/C=C/c2nc3n(n2)CCCC3c2ccc(SC)cc2)ccc1-n1cnc(C)c1 (single isomer, unassigned; (-)) [Example 7, (−)-2-{(E)-2-[3-methoxy-4-(4-methyl-1H-imidazol-1-yl)phenyl]vinyl}-8-(4-methylsulfanylphenyl)-5,6,7,8-tetrahydro-[1,2,4]triazolo[1,5-a]pyridine] | 0.03 µM
COc1cc(/C=C/c2nc3n(n2)CCCC3c2cccs2)ccc1-n1cnc(C)c1 (single isomer, unassigned; (-)) [Example 10, (−)-2-{(E)-2-[3-methoxy-4-(4-methyl-1H-imidazol-1-yl)phenyl]vinyl}-8-thiophen-2-yl-5,6,7,8-tetrahydro[1,2,4]triazolo[1,5-a]pyridine] | 0.033 µM
COc1cc(/C=C/c2nc3n(n2)CCCC3c2ccc(Br)cc2)ccc1-n1cnc(C)c1 (single isomer, unassigned; (-)) [Example 20, (−)-8-(4-bromophenyl)-2-{(E)-2-[3-methoxy-4-(4-methyl-1H-imidazol-1-yl)phenyl]vinyl}-5,6,7,8-tetrahydro-[1,2,4]triazolo[1,5-a]pyridine] | 0.03 µM
